The values below come from publication PMC8370248, “Key Metabolic Enzymes Involved in Remdesivir Activation in Human Lung Cells” (Antimicrobial Agents and Chemotherapy, 2021).

For data set [1], the system named is CatA. More on the design: method as in PMID 20801890, PMID 25870059. The conditions noted are these: published data ref 7, 9; cited from earlier work.
The test system of a further data set is SARS-CoV-2. The experiment in a line: microbe, parasite or virus in culture. The format is cell-based. Particulars: compound alone (plus DMSO), A549-hACE2 cells, 48 h.
A short description of data set [2]: A549-hACE2 cytotoxicity analysis. Particulars: human, A549-hACE2 cells.
Procedure: The cytotoxicity of compounds was determined in A549-hACE2 cells in the following manner. A549-hACE2 cells (12,000 cells per well in medium containing 2% FBS) were plated into a black opaque 96-well plate (Corning). The next day, 3-fold serial dilutions of compounds were prepared in DMSO in a manner to normalize the DMSO concentration among all cell culture wells. The compounds were further diluted 500-fold in the culture medium containing 2% FBS. Spent medium from overnight incubation was aspirated, 100 μl of diluted compound solutions were added to each well, and cultures were returned to 37°C with 5% CO2. […] Luciferase signals were measured using an Envision microplate reader. The relative luciferase signals were calculated by normalizing the luciferase signals of the compound-treated groups to that of the DMSO-treated groups (set as 100%). The relative luciferase signal (y axis) versus the compound concentration (x axis) was plotted in software GraphPad Prism 8 (version 8). […] Three independent experiments were performed with technical duplicates.
For a further data set, the system named is NHBE cells. The experiment in a line: Effect of hydrolase inhibitors on GS-443902 formation from RDV in NHBE cells. The data set is classed as cell-based, human. Particulars: coincubation with 1 μM RDV, 24 h, three donors.
The target of the next data set is T1, CES2 (Homo sapiens, UniProt O00748).
T1 construct: purchased Corning Incorporated (Corning, NY); host or cells: baculovirus-infected insect cells (microsomal fraction, Supersomes)
T1 sequence (O00748 27-559): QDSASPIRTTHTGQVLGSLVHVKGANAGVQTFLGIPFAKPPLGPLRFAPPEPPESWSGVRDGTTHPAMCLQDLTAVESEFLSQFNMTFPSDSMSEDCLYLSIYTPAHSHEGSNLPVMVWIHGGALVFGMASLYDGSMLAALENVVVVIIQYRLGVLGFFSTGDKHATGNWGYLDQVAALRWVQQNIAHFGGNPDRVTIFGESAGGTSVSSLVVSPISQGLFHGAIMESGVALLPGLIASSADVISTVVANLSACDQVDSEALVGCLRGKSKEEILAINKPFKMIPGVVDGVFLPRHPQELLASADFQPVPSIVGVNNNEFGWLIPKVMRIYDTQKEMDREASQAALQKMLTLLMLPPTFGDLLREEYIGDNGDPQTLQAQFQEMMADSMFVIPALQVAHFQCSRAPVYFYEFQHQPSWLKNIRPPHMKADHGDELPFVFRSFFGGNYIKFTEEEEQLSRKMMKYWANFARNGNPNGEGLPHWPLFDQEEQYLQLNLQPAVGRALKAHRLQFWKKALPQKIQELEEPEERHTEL
The experiment in a line: CES2-catalyzed hydrolysis of 4-NPA, inhibition by inhibitors. The format is biochemical. How it is done: (§1) Threefold dilutions of compounds were prepared in 100% DMSO. Compounds (100 μM to 0.005 μM), CES isozymes, and substrate 4-NPA were mixed in a 100-μl reaction volume consisting of 100 mM potassium phosphate buffer (pH 7.4) and 1% DMSO. […] The slopes of the progress curves were used to calculate reaction rates. Reaction rates were plotted as a function of inhibitor concentration, and the data were fit with a four-parameter logistic model using GraphPad Prism software (version 8; La Jolla, CA) to yield IC50 values.
(§2) Data were analyzed using GraphPad Prism 8.0. IC50 values were calculated by nonlinear regression analysis using the following sigmoidal dose-response (variable slope) equation (four-parameter logistic equation). Y=100/[1+10^(logIC50−X)×HillSlope] where X is the log of the concentration of the test compound, and Y is the response. The IC50 values were calculated as an average of three or more independent experiments.

Data set [3] addresses T2, CatA (Homo sapiens, UniProt P10619).
T2 sequence (P10619 29-326 limits assumed): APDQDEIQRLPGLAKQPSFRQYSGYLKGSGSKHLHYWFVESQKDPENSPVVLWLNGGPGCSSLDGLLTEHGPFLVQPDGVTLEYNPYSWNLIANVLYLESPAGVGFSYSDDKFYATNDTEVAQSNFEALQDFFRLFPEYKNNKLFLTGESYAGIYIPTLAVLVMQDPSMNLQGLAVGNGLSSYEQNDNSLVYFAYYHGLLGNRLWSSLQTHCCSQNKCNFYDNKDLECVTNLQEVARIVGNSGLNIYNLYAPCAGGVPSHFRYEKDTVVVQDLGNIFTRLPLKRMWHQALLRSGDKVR
T2 sequence (P10619 327-480 limits assumed): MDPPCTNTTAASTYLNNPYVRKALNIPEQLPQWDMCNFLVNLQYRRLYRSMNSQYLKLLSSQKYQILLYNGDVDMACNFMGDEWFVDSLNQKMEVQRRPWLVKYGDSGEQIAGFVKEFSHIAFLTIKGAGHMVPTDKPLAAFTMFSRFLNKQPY
The experiment in a line: CatA-catalyzed hydrolysis of fluorogenic peptide substrate, inhibition. The format is biochemical. More on the design: purchased R&D Systems (Minneapolis, MN). How it is done: The reaction was studied under both pH 6.5 (to match CatA-catalyzed RDV reaction conditions with minimal acidic hydrolysis) and pH 5.5 (to mimic acidic lysosomal environment). CatA was initially activated following the manufacturer’s protocol. […] Threefold dilutions of compounds were prepared in 100% DMSO. The final DMSO concentration was kept constant at 1% (vol/vol). […] The slopes of the progress curves were used to measure reaction rates. Reaction rates were plotted as a function of inhibitor concentration, and the data were fit with a four-parameter logistic fit using GraphPad Prism software to yield IC50 values.
as §2

In the next data set the target is T3, CES1c (Homo sapiens, UniProt P23141).
T3 construct: purchased Corning Incorporated (Corning, NY); host or cells: baculovirus-infected insect cells (microsomal fraction, Supersomes)
T3 sequence (P23141 18-566 isoform P23141-3 limits assumed): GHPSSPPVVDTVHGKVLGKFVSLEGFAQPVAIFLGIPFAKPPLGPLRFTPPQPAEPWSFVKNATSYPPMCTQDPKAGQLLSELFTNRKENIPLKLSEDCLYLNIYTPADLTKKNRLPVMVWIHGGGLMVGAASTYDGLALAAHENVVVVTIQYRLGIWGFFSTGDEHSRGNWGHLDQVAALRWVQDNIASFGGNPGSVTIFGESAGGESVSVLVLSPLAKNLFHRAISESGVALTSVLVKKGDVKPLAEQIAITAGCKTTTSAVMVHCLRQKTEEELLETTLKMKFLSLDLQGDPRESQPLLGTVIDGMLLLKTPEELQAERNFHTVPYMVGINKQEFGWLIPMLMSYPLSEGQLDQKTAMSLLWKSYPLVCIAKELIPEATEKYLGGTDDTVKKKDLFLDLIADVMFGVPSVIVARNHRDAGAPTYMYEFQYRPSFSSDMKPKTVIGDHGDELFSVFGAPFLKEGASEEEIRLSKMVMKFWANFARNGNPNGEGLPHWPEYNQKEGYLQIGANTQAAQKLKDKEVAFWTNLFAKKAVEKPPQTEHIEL
The experiment in a line: CES1c-catalyzed hydrolysis of 4-NPA, inhibition by inhibitors. The data set is classed as biochemical. As for the experimental part: as §1, §2

Data set [4] addresses T4, HINT1 (Homo sapiens, UniProt P49773).
T4 construct: purchased Abcam (Cambridge, MA)
The experiment in a line: HINT1-catalyzed hydrolysis of RDV MetX, inhibition. The data set is classed as biochemical. How it is done:
Following protein precipitation and centrifugation, 150 μl of supernatants were dried down and reconstituted with 250 μl water. All samples were analyzed by LC-MS, and PAR values were used for quantification. Disappearance of the MetX substrate was monitored over the incubation time period. Three experiments were conducted with two replicates each experiment, and data are reported as averages from three experiments.
as §2

The target in another data set is T5, CES1b (Homo sapiens, UniProt P23141).
T5 construct: purchased Corning Incorporated (Corning, NY); host or cells: baculovirus-infected insect cells (microsomal fraction, Supersomes)
T5 sequence (P23141 18-567): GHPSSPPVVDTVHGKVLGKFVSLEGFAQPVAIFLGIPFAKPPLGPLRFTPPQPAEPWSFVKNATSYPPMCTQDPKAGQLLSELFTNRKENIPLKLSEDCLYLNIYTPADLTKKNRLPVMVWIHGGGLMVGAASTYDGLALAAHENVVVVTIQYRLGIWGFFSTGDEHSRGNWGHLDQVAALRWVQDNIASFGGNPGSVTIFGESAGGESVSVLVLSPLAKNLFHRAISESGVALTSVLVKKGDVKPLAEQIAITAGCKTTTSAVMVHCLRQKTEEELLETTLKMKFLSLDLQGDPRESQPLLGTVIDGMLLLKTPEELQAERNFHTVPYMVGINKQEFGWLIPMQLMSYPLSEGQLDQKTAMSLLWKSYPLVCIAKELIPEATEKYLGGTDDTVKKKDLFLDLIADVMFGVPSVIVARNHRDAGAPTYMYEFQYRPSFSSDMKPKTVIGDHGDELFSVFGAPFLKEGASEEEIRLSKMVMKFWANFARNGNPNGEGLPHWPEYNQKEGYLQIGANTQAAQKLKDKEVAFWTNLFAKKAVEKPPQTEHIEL
The experiment in a line: CES1b-catalyzed hydrolysis of 4-NPA, inhibition by inhibitors. The format is biochemical. As for the experimental part: as §1, §2

For data set [5], the target named is HINT1. Also on record: method as in PMID 31503445. Particulars: previously reported by Shah et al. ref 17; read-out: dissociation constant [Kd], HINT1; cited from earlier work.
Data set [6] concerns cellular activation of sofosbuvir (SOF). The experiment in a line: Effect of HINT1 inhibitors on cellular activation of sofosbuvir. The conditions noted are these: data not shown. The format is cell-based.
The next data set relates to CES1. Also on record: method as in PMID 20801890, PMID 25870059. Particulars: published data ref 7, 9; cited from earlier work.
Where [7] appears, read: pH 5.5, fluorogenic peptide substrate, read-out: Inhibition (IC50) of enzyme activities, CatA pH 5.5.
The mark [8] stands for this setting: pH 6.5, fluorogenic peptide substrate, read-out: Inhibition (IC50) of enzyme activities, CatA pH 6.5.
Setting [9] is: substrate 4-NPA, read-out: Inhibition (IC50) of enzyme activities, CES1c.
Setting [10] is: substrate RDV MetX, read-out: Inhibition (IC50) of enzyme activities, HINT1.
Setting [11] is: substrate 4-NPA, read-out: Inhibition (IC50) of enzyme activities, CES1b.

SMILES strings stand for the structures. Like-named read-outs stand apart in the source and are kept apart here.

T4 sequence (P49773 whole entry): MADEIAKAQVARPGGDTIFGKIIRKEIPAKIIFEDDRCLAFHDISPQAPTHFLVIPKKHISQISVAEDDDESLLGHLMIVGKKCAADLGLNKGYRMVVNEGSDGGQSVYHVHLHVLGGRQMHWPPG
Procedure for NHBE cells: Cells were harvested at 24 h after compound addition, and the GS-443902 levels were assessed by an LC-MS method.
NHBE cells (5 × 10^5) in 2 ml of BEGM media were seeded in each well of a 6-well plate and incubated overnight at 37°C and 5% CO2. […] Twenty-four hours post-compound addition, the cells were washed 3× with 1 ml of cold 1× Tris-HCl (pH 7.0)-buffered saline, and cells were harvested in 500 μl dry ice-cold extraction buffer (0.1% potassium hydroxide and 67 mM ethylenediamine tetra-acetic acid in 70% methanol, containing 0.5 μM chloro-ATP as internal standard) and transferred to a deep-well block on dry ice. The deep-well block was stored at −80°C until processing. At the time of harvest, two untreated wells for each donor were trypsinized, and the cell counts were determined. All compound combinations were tested in duplicate in cells from three donors.
Each NHBE sample was treated with 500 μl of dry ice-cold extraction buffer (0.1% potassium hydroxide and 67 mM ethylenediamine tetra-acetic acid in 70% methanol, containing 0.5 μM chloro-ATP as internal standard). The above solution was vortexed for 5 min and then centrifuged at 20,000 × g for 10 min. The supernatant was transferred to a clean 96-deep-well plate and then dried on an evaporator. Once dry, samples were reconstituted with 80 μl of 1 mM ammonium phosphate buffer (pH 7) and transferred to a 96-short-well plate for analysis. An aliquot of 10 μl was injected into a Sciex QTrap 6500+ liquid chromatography-tandem mass spectrometry (LC-MS/MS) system run under the multiple reaction monitoring (MRM) operation mode.
Standard calibration curves for NHBE were constructed based on pmol of compound per sample. […] Using the calibration curve, the amount of the metabolites was quantified in each sample, and the intracellular concentrations (pmol/million cells) were determined by dividing the value by the cell number in the sample.

With `CCC[C@H](NC(=O)[C@@H]1[C@H]2CCC[C@H]2CN1C(=O)[C@@H](NC(=O)[C@@H](NC(=O)c1cnccn1)C1CCCCC1)C(C)(C)C)C(=O)C(=O)NC1CC1` [Telaprevir], the IC50 in the data set on CatA [1] is 0.21 µM; at CES2, > 100 µM; against CatA [3] (IC50 values range for CatA, range over pH 6.5 and pH 5.5), 0.078 to 0.34 µM; on CatA [3] (Inhibition (IC50) of enzyme activities, CatA pH 5.5, pH 5.5, fluorogenic peptide substrate) it was 0.34 ± 0.06 µM; against CatA [3] (Inhibition (IC50) of enzyme activities, CatA pH 6.5, pH 6.5, fluorogenic peptide substrate) it was 0.078 ± 0.009 µM; against CES1c it was > 100 µM. In addition, the IC50 against HINT1 [4] and on CES1b was > 100 µM throughout. Further, the EC50 with SARS-CoV-2 was > 50 µM. For the same compound, the CC50 at 48 h in data set [2] was found to be 29.2 µM. Moreover, the “Effect on GS-443902 formation in NHBE cells” value (shortened to “Effect on GS-443902 formation”) in the data set with NHBE cells is listed as “dose-dependent inhibition of GS-443902 formation”.

For `Nc1nc2c(ncn2[C@@H]2O[C@H](COC(=O)NCCc3c[nH]c4ccccc34)[C@@H](O)[C@H]2O)c(=O)[nH]1` [TrpGc], the dissociation constant (Kd) at HINT1 [5] was 3.65 µM. For the same compound, in data set [6], the “Effect on cellular activation of sofosbuvir (SOF)” value is listed as “neither TrpGc nor compound 7”. In addition, in the data set on NHBE cells, the “Effect on GS-443902 formation” value is “neither of them significantly altered”. Besides, the IC50 at CES2 (substrate 4-NPA, read-out: Inhibition (IC50) of enzyme activities, CES2) is > 100 µM; at CatA [3] (setting [7]), > 100 µM; at CatA [3] (setting [8]), > 100 µM; on CES1c (setting [9]), > 100 µM; at HINT1 [4] (setting [10]), 1.5 ± 0.5 µM; at CES1b (setting [11]), > 100 µM.

In the case of `O=[N+]([O-])c1ccc(OP(=O)(O)Oc2ccc([N+](=O)[O-])cc2)cc1` [BNPP, bis(4-nitrophenyl)phosphate], the “Effect on GS-443902 formation” value in the data set with NHBE cells is given as “did not cause a significant change in GS-443902 formation”. Besides, the half-maximal inhibitory concentration (IC50) in the data set with CES1 is 0.11 µM; on CatA [3] (setting [7]), > 100 µM; at CatA [3] (setting [8]) it was > 100 µM; at CES1c (setting [9]), 14 ± 5.6 µM; on HINT1 [4] (setting [10]) it was > 100 µM; at CES1b (setting [11]), 0.75 ± 0.12 µM.

Usually IC50 stands for the concentration needed to halve the response being measured. What is called EC50 is the concentration at which the effect is half-maximal. Broadly, the CC50 is the concentration giving 50% cytotoxicity. A high value points to lower toxicity to the cells. The term Kd denotes a measure of binding affinity in units of concentration.
